Test results: a melting point compilation (Tetko et al.; mined from patent text by program, amines drawn as free bases though some values may be those of a salt)

Structure (SMILES) | melting point [°C]
CNC(=O)c1ccc(F)c2c1CC(N(CCCCc1c[nH]c3ccc(F)cc13)C1CCC1)CO2 (stereo not drawn) | 123
COc1ccc(Cl)c(C(=O)NCCc2ccc(S(=O)(=O)NC(=O)c3ccc(C(=O)NCCO)nc3)cc2)c1 | 135 to 137
O=C(Nc1ccc(Cl)cn1)c1cc(Cl)ccc1NCC1CCN(C2CCSCC2)CC1 | 200 to 203
COc1cc(CCCn2cncn2)ccc1O | 97 to 98
CC(C(=O)c1c(O)c2cccnc2n(-c2cccc(C(F)(F)F)c2)c1=O)c1ccccc1 (stereo not drawn) | 200 to 201
CCCCCCCCCCCCS(=O)(=O)CCOc1ccc(C/C=C(\OC(C)=O)C(F)(F)F)cc1 | 48 to 49
COc1cc2c(Nc3ccc(Cl)cc3F)ncnc2cc1OCCN1CCN(C)CC1 | 173 to 175
CSc1nc(-c2cc(C(C)(C)C)c(O)c(C(C)(C)C)c2)c(-c2ccccc2)[nH]1 | 129 to 131
CC1CCc2nc(=O)c(-c3ccccc3)cn21 (stereo not drawn) | 178
O=c1cc(Oc2ccccc2)c2cc(C(c3ccc(Cl)cc3)n3ccnc3)ccc2[nH]1 (stereo not drawn) | 233
CSC1=C([N+](=O)[O-])CCN1 | 207 to 209
O=C(Nc1nc(CN2CCC(c3c[nH]c4ccccc34)CC2)cs1)C1CC1 | 120 to 132
O=C(C#Cc1ccc(-c2ccc(Cl)cc2)cc1)Nc1ccc(CNCC2CCCCC2)cc1 | 205 to 210
NS(=O)(=O)OCCN1CCCC1=O | 110 to 112
c1ccc(COc2ccc(Cc3nnc(Nc4ccc5c(c4)ncn5-c4ccccc4)c4ccccc34)cc2)cc1 | 229 to 231
CS(=O)(=O)ON=C(Cl)c1ccccc1 | 106 to 108
O=C(CC(NC(=O)c1ccccc1)c1ccccc1)Nc1n[nH]c(=S)s1 (stereo not drawn) | 266 to 267
COC(NC(C)=O)(C(=O)O)C(Br)Br (stereo not drawn) | 143 to 144
O=C(Nc1ccc(Br)cc1)Nn1cnc2c(O)cccc2c1=O | 276 to 278
CS(=O)(=O)N1CCN(c2n[nH]c(-c3ccc(Cl)cc3)c2-c2ccncc2)CC1 | 245 to 248
O=C(Nc1ccc(CN2C(=O)[C@H]3CCC[C@H]3N(C(=O)CN3C(=O)c4ccccc4C3=O)c3ccccc32)cc1)c1cccc(F)c1 (relative stereo) | 256 to 259
O=C(Nc1cccnn1)N1CCN(c2nc(-c3ccccc3)ns2)CC1 | 185 to 186
CC(=O)n1ncc2c(OCc3ccccc3)cccc21 | 97
CCCOc1nc(N)c2ncn(C3C=CCCC3)c2n1 (stereo not drawn) | 157 to 159
CCC(O)CN1CCC(CCN2CCN(c3cccc(Cl)c3Cl)CC2)CC1 (stereo not drawn) | 94

Structure (SMILES) | melting point [°C]
CO[C@@H]1[C@H](O)[C@@H](CO)O[C@H]1n1cnc2c(N[C@H](C)Cc3ccc(Cl)s3)ncnc21 | 84 to 85
CN(CC(=O)C(Cc1cccnc1)NC(=O)c1ccccc1)C(=O)N1CCCC1C(=O)O (stereo not drawn) | 92 to 120
Clc1ccc(CN2CC=C(/C=C/c3ccc4[nH]ccc4c3)CC2)cc1 | 165
N#Cc1cnc2cc(-c3csc(C=O)c3)ccc2c1Nc1ccc(Cl)cc1Cl | 286 to 288
O=C1c2ccccc2C(=O)N1Cc1noc(-c2ncn3c2[C@@H]2CCN2C(=O)c2c-3cccc2C(F)(F)F)n1 | 243 to 245
N#Cc1nc2ccccc2n(-c2ccc(Cl)cc2)c1=O | 232 to 235
CC(=NOCCOc1ccc(CC2SC(=O)NC2=O)cc1)c1ccc(OCc2ccccc2)nc1 (stereo not drawn) | 160 to 161
Cc1ncncc1C(=O)Nc1cnc(-n2nc(C(F)(F)F)cc2C2CC2)nc1 | 201 to 203
O=C(CCC1CCCCCCCCCCC1=O)C1=C(O)CSC1=O (stereo not drawn) | 93 to 95
O=C(Nc1cc(F)ccc1N1CCCCC1)c1ccncc1 | 115 to 116
CC(=O)Nc1cc(F)ccc1C(=O)NCCN1CCC(O)(c2ccc(Cl)cc2)CC1 | 175
COc1ccc(C(=O)N(C(=O)c2ccc(OC)cc2)c2nc3ccc(N4CCOCC4)cc3c(NCc3ccccc3)c2C#N)cc1 | 157
CCCCCCCCNC1=NS(=O)(=O)c2cnccc2N1 | 176 to 179
Cc1ccc(SN(C)C(=O)Oc2cccc3c2OC(C)(C)C3)cc1 | 62
CCCCCCC/C=C\CCCCCCCC(O)CCCNC(C)=O (stereo not drawn) | 50 to 52
Fc1cccc(CSc2nnc(-c3ccc4nccn4c3)o2)c1 | 173 to 174
CCCCCCCCCCc1cc2c(s1)-n1c(C)nnc1CN=C2c1ccccc1C | 61 to 63
CCCN(CCC)C(=O)Cc1c(-c2ccc(Cl)cc2)nn2cccnc12 | 104 to 106
N#Cc1c(OCCOc2ccccc2)cccc1[N+](=O)[O-] | 129 to 138
CN1CCC2=C(CCCC2)C1Cc1ccc(O)cc1 (single isomer, unassigned; (-)) | 119 to 120
COC(=O)CCCCCOc1ccc(NC(=O)CO)cc1 | 91.5 to 94
COc1ccc(-n2cnc3ccc(-c4nnc(SCc5ccc(OC)c(C(F)(F)F)c5)o4)cc32)cc1 | 163 to 164
CC(=O)Oc1cc(C(=O)N2CCC(C(=O)C3CCCCC3)CC2)c([N+](=O)[O-])cc1OC(C)=O | 160 to 165
C#CC(=NOC)C(=O)OC | 82 to 83
CCOC(=O)CCCSC(=S)NCc1ccc(Cl)cc1 | 61 to 62

Now from value to compound:

melting point [°C] | Structure (SMILES)
99 to 100 | CCN(CC)CC(=O)Nc1ccc(-c2n[nH]c3c2Cc2ccccc2-3)cc1
184 to 185 | CCCn1c(=O)c2c(N)n(CC(=O)c3cccc(OC)c3)nc2n(Cc2ccccc2)c1=O
120 to 123 | CCc1c(C)n(C)c2ccc(NC(=O)Nc3ccccn3)cc12
132 to 133 | CCOCc1nc2c(N)nc3cc(CCCN4CCOCC4)ccc3c2n1CC(C)(C)O
188 to 190 | COc1cc(OC)nc(NC(=O)NS(=O)(=O)c2c([Si](C)(C)C)ccc3c2S(=O)(=O)C(C)C3)n1 (stereo not drawn)
50 to 60 | COc1ncc(C)nc1NS(=O)(=O)c1cccc(Cl)c1Cl
355 to 357 | NC(=O)c1nc(-c2cccc(O)c2)nc2c1[nH]c(=O)n2[C@H]1CC[C@H](O)CC1
180 to 181 | CC(C)(C)c1ccc(C(NC(=O)c2c(F)cccc2Cl)N2CCOCC2)cc1 (stereo not drawn)
221 to 223 | CSc1nn2c(N(C)C)cc(C)nc2c1S(=O)(=O)c1ccc(Cl)cc1
61 to 64 | CC1(C)COC(=O)C1=O
128 to 132 | CCC(C)(CC)NC(=S)Nc1cc(Cl)cc(Cl)c1
134 to 135 | C=CCc1nc(CC)n2nc(-c3cc(I)cnc3OCCCC)[nH]c(=O)c12
91 to 92 | COC(=O)c1oc(C(C)(C)C)cc1N
65 | CCCCOc1cc(/C=C(\OCC)C(=O)O)ccc1CCCc1ccc(OC)cc1
168 to 171 | CCSc1ccc(-c2cncnc2)c2c1C(=O)CC(C)C2 (stereo not drawn)
157 to 161 | CCCN(CCC)C(=O)CC1CN(Cc2ccccc2)c2ccc(OC(=O)Nc3ccc(C(C)C)cc3)cc21 (stereo not drawn)
218 to 219 | COc1cccc(CNC(=O)c2nc3scc(NC(=O)Cc4ccc(C(=O)O)cc4)c3c(=O)[nH]2)c1
142 to 144 | CCOC(=O)c1c(C)cc2c(c1C)C(=O)OCC2=O
207 to 210 | COCc1ncccc1CN(CCn1cc(C)c2occc2c1=O)Cc1ccc2c(c1)NC(=O)C(C)(C)C(=O)N2CC(C)C
224 to 226 | CC1(c2cccs2)Cc2cc(O)c(Cl)c(Cl)c2C1=O (stereo not drawn)
290 to 295 | CNc1nc2ccc(C3=NNC(=O)NC3C)cc2s1 (stereo not drawn)
162 to 163 | Cc1cc(Cc2cnc(N)nc2N)cc(C)c1N(C)C
139 to 141 | COC(=O)/C=C/n1cnc2c(C)cc(C)cc2c1=O
73 to 76 | COC(=O)c1ccc(Cl)cc1OCC#N

melting point [°C] | Structure (SMILES)
166 to 169 | CCN1CCCC1CNC(=O)c1c(C)[nH]c(C=O)c1C (stereo not drawn)
208 to 209 | O=C(O)COc1ccc(Cl)cc1-c1ccc(S(=O)(=O)N2CCOCC2)c(C(F)(F)F)c1
190 to 191 | CCS(=O)(=O)c1nn(-c2ccccc2)c(=O)c2c(N)scc12
163 to 164 | CC(=O)Nc1cc2c(c(C)c1C)OC(C)(C)C2
98 to 99 | C=CCOC(=O)C1=C(C)NC(C)=C(C(=O)OCC=C)C1c1ccccc1Cl
37 to 38 | CCCCCCCCCCOc1ccc(OCc2ccccc2)c(C(=O)N(CC(=O)OCC)CC(=O)OCC)c1
204 to 205 | CCCn1c(=O)c(N=O)c(N)n(CCc2ccc([N+](=O)[O-])cc2)c1=O
46 to 47 | CCCCc1oc2ccccc2c1C(=O)c1ccc(OCCBr)cc1
53 | CCOC(=O)C(C(C)C)S(=O)(=O)c1ccc(OC)cc1 (stereo not drawn)
188 to 191 | Cn1c(NCc2cccc(NC(=O)C=Cc3ccccc3Cl)c2)nc2ccccc21
127 to 129 | COc1cc(=O)n(-c2cccc(C(F)(F)F)c2)nc1C(=O)N(C)OC
86 to 87 | CCOC(=O)C1=C(C)NC(COC(=O)CCN(C)Cc2ccccc2)=C(C(=O)OCC)C1c1ccccc1Cl (stereo not drawn)
126 to 128 | CCOC(=O)C1=C(C)NC(=S)N(C(=O)OCC)C1c1ccccc1Cl (stereo not drawn)
220 to 221 | CC(C)(C)C(NC(=O)COc1ccccc1)Nc1c(Nc2cccnc2Cl)c(=O)c1=O (stereo not drawn)
109 to 112 | O=C(NN=Cc1ccc2cc(OC(=O)c3ccc([N+](=O)[O-])o3)ccc2c1)OCc1ccccc1
65 | CCOC(=O)c1cnc(N(C)C)nc1
320 | Cc1c(O)ccc(NC2=CC(=O)C(N)=CC2=O)c1C
110 to 112 | CCCc1cc(O)cc2nc(-c3ccc(O)cc3)oc12
149 to 150 | CCOC(=O)c1ccc(NC(=O)OC(C)(C)C)cc1
103 to 105 | COC(=O)c1ccc(Oc2ccc([N+](=O)[O-])cc2C(=O)OC)cc1
257 to 258 | COc1ccc(-c2c(Cl)c(CN3C(=O)CCC3=O)nc3sc4c(c23)CCC(=O)C4)cc1
127 to 128 | CCN(CC)C1=C2N=c3cc(Cl)ccc3=C2Oc2ccccc2N1C
161 to 163 | O=C1NC(=O)C(Cc2ccc(OCCON=Cc3ccccn3)cc2)S1 (stereo not drawn)
170 | COc1cc2c(cc1C(=O)Cl)nnn2C(C)=O
